From PMC7407272, “Induction of Lysosome Membrane Permeabilization as a Therapeutic Strategy to Target Pancreatic Cancer Stem Cells” (Cancers, 2020)

What was measured:
ABL1(E255K)-P = biological target: T1, ABL1(E255K)-P (Homo sapiens, UniProt P00519, E255K); test: KINOMEscan; format: binding; settings: read-out: % Ctrl
T1 construct: purchased DiscoveRx KINOMEscan

FGFR1 = biological target: T2, FGFR1 (Homo sapiens, UniProt P11362); test: KINOMEscan; format: binding; settings: read-out: % Ctrl
T2 construct: purchased DiscoveRx KINOMEscan

ACVR2B = biological target: T3, ACVR2B (Homo sapiens, UniProt Q13705); test: KINOMEscan; format: binding; settings: read-out: % Ctrl
T3 construct: purchased DiscoveRx KINOMEscan

PKN2 = biological target: T4, PKN2 (Homo sapiens, UniProt Q16513); test: KINOMEscan; format: binding; settings: read-out: % Ctrl
T4 construct: purchased DiscoveRx KINOMEscan

BMPR1A = biological target: T5, BMPR1A (Homo sapiens, UniProt P36894); test: KINOMEscan; format: binding; settings: read-out: % Ctrl
T5 construct: purchased DiscoveRx KINOMEscan

PLK3 = biological target: T6, PLK3 (Homo sapiens, UniProt Q9H4B4); test: KINOMEscan; format: binding; settings: read-out: % Ctrl
T6 construct: purchased DiscoveRx KINOMEscan

JNK1 = biological target: T7, JNK1 (Homo sapiens, UniProt P45983); test: KINOMEscan; format: binding; settings: read-out: % Ctrl
T7 construct: purchased DiscoveRx KINOMEscan

CAMK2B = biological target: T8, CAMK2B (Homo sapiens, UniProt Q13554); test: KINOMEscan; format: binding; settings: read-out: % Ctrl
T8 construct: purchased DiscoveRx KINOMEscan

KIT(A829P) = biological target: T9, KIT(A829P) (Homo sapiens, UniProt P10721, A829P); test: KINOMEscan; format: binding; settings: read-out: % Ctrl
T9 construct: purchased DiscoveRx KINOMEscan

ROS1 = biological target: T10, ROS1 (Homo sapiens, UniProt P08922); test: KINOMEscan; format: binding; settings: read-out: % Ctrl
T10 construct: purchased DiscoveRx KINOMEscan

CDKL1 = biological target: T11, CDKL1 (Homo sapiens, UniProt Q00532); test: KINOMEscan; format: binding; settings: read-out: % Ctrl
T11 construct: purchased DiscoveRx KINOMEscan

CDKL2 = biological target: T12, CDKL2 (Homo sapiens, UniProt Q92772); test: KINOMEscan; format: binding; settings: read-out: % Ctrl
T12 construct: purchased DiscoveRx KINOMEscan

CSNK1D = biological target: T13, CSNK1D (Homo sapiens, UniProt P48730); test: KINOMEscan; format: binding; settings: read-out: % Ctrl
T13 construct: purchased DiscoveRx KINOMEscan

MET(M1250T) = biological target: T14, MET(M1250T) (Homo sapiens, UniProt P08581, M1250T); test: KINOMEscan; format: binding; settings: read-out: % Ctrl
T14 construct: purchased DiscoveRx KINOMEscan

STK35 = biological target: T15, STK35 (Homo sapiens, UniProt Q8TDR2); test: KINOMEscan; format: binding; settings: read-out: % Ctrl
T15 construct: purchased DiscoveRx KINOMEscan

TAK1 = biological target: T16, TAK1 (Homo sapiens, UniProt O43318); test: KINOMEscan; format: binding; settings: read-out: % Ctrl
T16 construct: purchased DiscoveRx KINOMEscan

MLK2 = biological target: T17, MLK2 (Homo sapiens, UniProt Q02779); test: KINOMEscan; format: binding; settings: read-out: % Ctrl
T17 construct: purchased DiscoveRx KINOMEscan

TEC = biological target: T18, TEC (Homo sapiens, UniProt P42680); test: KINOMEscan; format: binding; settings: read-out: % Ctrl
T18 construct: purchased DiscoveRx KINOMEscan

MST4 = biological target: T19, MST4 (Homo sapiens, UniProt Q9P289); test: KINOMEscan; format: binding; settings: read-out: % Ctrl
T19 construct: purchased DiscoveRx KINOMEscan

[1] = biological target: T20, EGFR(L747-S752del, P753S) (Homo sapiens, UniProt P00533, DEL747-752/P753S); test: KINOMEscan; format: binding; settings: read-out: % Ctrl
T20 construct: purchased DiscoveRx KINOMEscan

MYLK4 = biological target: T21, MYLK4 (Homo sapiens, UniProt Q86YV6); test: KINOMEscan; format: binding; settings: read-out: % Ctrl
T21 construct: purchased DiscoveRx KINOMEscan

TRKC = biological target: T22, TRKC (Homo sapiens, UniProt Q16288); test: KINOMEscan; format: binding; settings: read-out: % Ctrl
T22 construct: purchased DiscoveRx KINOMEscan

EPHB1 = biological target: T23, EPHB1 (Homo sapiens, UniProt P54762); test: KINOMEscan; format: binding; settings: read-out: % Ctrl
T23 construct: purchased DiscoveRx KINOMEscan

FER = biological target: T24, FER (Homo sapiens, UniProt P16591); test: KINOMEscan; format: binding; settings: read-out: % Ctrl
T24 construct: purchased DiscoveRx KINOMEscan

[2] = test system: PDAC1 adherent 2D monolayers; test: Viability curves on PDAC1 adherent 2D monolayers; format: cell-based; settings: Homo sapiens, 30 h
Text: The PDAC patient-derived xenograft (PDX) Panc354 (referred to hereafter as PDAC3) was obtained from Dr. Manuel Hidalgo under a Material Transfer Agreement with the Spanish National Cancer Centre (CNIO), Madrid, Spain (Reference no. I409181220BSMH). PDAC1, PDAC2 and PDAC4 PDXs were established from primary patient resected tumors. Samples were provided by the BioBank Hospital Ramón y Cajal-IRYCIS (PT13/0010/0002), integrated in the Spanish National Biobanks Network and they were processed following standard operating procedures with the appropriate approval of the Ethical and Scientific Committees (Control no. No. Control: DE-BIOB-73 AC65, RG.BIOB-96 REV, and CI-BIOB-08-10-01 rev), with informed consent and according to Declaration of Helsinki principles. Primary patient tumors were subcutaneously implanted in immunocompromised female 6- to 8-week-old NU-Foxn1nu nude mice (Envigo, Barcelona, Spain) and subsequently passage in vivo to establish PDX PDAC1, PDAC2 and PDAC4. Primary PDX-derived in vitro cultures were established as previously detailed. […]
Murine embryonic stem cells (mESCs) were plated at 20,000 cells per well in gelatinized 96 well plates. […] Trypsinized cells were counted and 20,000 cells were plated in wells of standard tissue culture-treated plates (Corning) and treated the following day with indicated compounds and concentrations.

T8 sequence (Q13554 whole entry): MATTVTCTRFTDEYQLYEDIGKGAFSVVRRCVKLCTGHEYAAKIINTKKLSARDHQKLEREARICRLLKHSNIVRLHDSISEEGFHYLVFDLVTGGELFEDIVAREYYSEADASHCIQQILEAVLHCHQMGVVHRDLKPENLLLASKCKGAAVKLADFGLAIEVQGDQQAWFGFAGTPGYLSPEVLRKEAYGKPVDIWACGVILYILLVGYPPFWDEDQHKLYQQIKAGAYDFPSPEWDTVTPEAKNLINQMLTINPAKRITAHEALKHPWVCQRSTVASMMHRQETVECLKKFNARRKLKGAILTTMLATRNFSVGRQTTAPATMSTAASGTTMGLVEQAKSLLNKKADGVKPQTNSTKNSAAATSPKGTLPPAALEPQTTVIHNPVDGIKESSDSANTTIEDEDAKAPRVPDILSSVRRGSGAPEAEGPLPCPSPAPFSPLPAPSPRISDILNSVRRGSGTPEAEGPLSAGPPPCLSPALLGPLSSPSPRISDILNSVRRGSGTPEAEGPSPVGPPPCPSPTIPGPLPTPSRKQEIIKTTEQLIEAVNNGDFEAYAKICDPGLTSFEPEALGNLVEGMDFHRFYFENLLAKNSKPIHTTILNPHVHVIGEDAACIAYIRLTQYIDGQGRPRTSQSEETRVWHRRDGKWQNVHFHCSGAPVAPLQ
T2 sequence (P11362 22-822): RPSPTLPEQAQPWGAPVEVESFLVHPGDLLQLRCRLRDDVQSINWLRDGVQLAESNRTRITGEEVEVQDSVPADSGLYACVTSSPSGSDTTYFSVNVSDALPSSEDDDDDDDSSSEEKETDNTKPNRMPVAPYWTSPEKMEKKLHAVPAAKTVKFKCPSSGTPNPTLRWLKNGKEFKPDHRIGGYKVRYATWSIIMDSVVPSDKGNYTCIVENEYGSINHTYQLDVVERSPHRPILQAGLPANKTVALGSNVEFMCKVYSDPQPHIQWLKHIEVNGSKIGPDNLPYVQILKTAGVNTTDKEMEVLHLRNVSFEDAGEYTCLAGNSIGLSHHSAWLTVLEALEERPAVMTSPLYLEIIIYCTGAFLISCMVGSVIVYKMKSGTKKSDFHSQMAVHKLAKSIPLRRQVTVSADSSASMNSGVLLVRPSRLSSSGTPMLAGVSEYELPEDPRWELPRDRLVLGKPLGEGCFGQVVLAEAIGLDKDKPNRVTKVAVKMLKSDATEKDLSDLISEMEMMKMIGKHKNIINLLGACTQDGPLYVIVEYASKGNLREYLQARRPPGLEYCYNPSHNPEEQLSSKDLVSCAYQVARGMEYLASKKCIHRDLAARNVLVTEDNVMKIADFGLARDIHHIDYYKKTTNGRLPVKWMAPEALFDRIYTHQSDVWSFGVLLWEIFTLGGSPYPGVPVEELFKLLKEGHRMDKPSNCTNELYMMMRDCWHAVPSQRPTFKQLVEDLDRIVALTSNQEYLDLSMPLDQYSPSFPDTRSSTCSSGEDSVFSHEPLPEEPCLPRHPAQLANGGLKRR
T19 sequence (Q9P289 whole entry): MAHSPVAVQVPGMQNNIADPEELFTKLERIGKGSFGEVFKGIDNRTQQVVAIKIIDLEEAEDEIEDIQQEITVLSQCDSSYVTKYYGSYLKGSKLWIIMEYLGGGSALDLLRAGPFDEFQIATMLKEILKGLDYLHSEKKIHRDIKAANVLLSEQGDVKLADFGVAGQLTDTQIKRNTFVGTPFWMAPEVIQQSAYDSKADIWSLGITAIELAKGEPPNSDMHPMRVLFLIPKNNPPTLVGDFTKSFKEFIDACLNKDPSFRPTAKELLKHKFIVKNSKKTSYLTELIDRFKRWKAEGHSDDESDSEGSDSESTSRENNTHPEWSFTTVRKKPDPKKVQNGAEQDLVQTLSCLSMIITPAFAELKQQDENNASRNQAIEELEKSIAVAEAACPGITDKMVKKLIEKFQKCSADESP
T18 sequence (P42680 whole entry): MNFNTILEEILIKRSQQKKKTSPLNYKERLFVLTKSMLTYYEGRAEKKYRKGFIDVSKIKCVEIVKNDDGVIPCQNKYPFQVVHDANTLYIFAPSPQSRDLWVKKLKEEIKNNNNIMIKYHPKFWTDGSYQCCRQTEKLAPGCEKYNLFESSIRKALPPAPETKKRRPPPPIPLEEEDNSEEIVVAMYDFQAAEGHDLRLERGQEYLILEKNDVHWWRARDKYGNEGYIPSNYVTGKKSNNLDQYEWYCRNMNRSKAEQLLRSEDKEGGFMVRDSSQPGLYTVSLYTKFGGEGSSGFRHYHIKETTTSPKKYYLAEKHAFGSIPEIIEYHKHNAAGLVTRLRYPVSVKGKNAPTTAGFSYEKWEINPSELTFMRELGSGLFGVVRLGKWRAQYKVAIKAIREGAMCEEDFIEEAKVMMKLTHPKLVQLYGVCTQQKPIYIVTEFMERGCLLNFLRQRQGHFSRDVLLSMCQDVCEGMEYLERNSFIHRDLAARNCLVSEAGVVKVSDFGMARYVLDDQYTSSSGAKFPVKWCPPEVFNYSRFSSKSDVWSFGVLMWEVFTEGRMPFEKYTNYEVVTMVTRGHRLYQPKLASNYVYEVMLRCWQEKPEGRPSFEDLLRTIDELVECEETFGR
T16 sequence (O43318 whole entry): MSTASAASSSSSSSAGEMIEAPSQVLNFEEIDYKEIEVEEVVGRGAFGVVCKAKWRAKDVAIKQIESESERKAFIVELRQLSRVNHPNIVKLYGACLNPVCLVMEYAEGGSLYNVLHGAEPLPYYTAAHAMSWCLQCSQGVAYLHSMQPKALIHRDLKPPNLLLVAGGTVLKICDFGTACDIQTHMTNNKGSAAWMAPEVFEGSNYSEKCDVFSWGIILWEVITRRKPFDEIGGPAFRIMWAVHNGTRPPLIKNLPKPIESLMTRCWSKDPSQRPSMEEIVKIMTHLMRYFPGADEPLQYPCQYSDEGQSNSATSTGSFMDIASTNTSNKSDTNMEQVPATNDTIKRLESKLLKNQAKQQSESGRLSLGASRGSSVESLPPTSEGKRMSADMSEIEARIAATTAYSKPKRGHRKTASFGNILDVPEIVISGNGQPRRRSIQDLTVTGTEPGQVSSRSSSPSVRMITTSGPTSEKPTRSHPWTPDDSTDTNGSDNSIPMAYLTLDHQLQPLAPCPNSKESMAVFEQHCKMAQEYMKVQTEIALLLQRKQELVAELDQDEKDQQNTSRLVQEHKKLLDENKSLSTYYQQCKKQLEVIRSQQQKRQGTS
T7 sequence (P45983 whole entry): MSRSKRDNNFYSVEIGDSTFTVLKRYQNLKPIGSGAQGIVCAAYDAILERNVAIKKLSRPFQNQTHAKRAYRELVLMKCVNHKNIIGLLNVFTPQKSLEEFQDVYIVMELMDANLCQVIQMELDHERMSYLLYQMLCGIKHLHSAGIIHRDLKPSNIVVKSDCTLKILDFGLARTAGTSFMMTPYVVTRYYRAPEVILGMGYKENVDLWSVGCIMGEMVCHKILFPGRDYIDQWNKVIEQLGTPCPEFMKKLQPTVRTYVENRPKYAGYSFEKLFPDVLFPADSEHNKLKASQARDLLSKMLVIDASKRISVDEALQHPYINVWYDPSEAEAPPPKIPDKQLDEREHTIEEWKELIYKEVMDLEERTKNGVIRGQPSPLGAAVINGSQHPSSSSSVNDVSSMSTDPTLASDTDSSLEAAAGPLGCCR
T17 sequence (Q02779 whole entry): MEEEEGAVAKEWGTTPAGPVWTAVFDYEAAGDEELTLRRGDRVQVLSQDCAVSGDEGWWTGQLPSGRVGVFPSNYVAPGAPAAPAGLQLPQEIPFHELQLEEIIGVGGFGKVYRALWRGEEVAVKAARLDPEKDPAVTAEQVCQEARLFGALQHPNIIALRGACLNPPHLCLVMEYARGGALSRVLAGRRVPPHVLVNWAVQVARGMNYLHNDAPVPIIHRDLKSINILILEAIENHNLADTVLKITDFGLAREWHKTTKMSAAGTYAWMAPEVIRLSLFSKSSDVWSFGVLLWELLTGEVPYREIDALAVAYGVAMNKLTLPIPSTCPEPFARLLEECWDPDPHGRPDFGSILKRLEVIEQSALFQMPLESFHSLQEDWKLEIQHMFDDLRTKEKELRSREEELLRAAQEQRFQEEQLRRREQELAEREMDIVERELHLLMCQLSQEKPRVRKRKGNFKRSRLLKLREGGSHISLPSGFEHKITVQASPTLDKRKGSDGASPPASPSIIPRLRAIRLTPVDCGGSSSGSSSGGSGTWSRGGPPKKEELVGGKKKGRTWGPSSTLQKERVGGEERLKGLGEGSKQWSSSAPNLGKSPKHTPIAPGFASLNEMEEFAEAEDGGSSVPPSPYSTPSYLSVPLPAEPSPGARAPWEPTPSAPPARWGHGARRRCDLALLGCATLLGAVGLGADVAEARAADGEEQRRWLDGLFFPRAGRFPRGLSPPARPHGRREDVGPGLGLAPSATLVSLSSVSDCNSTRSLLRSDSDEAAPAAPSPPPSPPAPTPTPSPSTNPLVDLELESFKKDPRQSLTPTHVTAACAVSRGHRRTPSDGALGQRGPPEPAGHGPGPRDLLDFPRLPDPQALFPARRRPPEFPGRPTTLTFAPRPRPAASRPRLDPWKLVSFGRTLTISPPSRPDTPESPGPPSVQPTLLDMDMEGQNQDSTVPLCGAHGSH
T3 sequence (Q13705 19-512): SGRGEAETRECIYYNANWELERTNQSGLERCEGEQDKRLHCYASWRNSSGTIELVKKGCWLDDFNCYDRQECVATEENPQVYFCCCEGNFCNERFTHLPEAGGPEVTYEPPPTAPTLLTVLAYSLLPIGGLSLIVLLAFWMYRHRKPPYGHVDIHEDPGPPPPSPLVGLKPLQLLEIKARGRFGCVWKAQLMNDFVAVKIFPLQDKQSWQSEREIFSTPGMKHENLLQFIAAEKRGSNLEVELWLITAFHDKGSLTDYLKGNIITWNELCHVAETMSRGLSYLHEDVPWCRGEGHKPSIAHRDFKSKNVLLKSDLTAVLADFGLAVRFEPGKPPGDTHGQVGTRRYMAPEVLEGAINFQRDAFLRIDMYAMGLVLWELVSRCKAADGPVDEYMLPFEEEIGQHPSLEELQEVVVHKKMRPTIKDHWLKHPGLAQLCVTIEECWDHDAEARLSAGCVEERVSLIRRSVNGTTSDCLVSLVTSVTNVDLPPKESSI

CN1CCC(CNc2ccc3ncc(C(=O)Nc4cccc(OC(F)(F)F)c4)n3n2)CC1 [Cpd 2]
remaining binding at 1 µM (ABL1(E255K)-P): 85% | remaining binding at 1 µM (FGFR1): 100% | remaining binding at 1 µM (ACVR2B): 100% | remaining binding at 1 µM (PKN2): 79% | remaining binding at 1 µM (BMPR1A): 97% | remaining binding at 1 µM (PLK3): 97% | remaining binding at 1 µM (JNK1): 92% | remaining binding at 1 µM (CAMK2B): 92% | remaining binding at 1 µM (KIT(A829P)): 91% | remaining binding at 1 µM (ROS1): 91% | remaining binding at 1 µM (CDKL1): 97% | remaining binding at 1 µM (CDKL2): 98% | remaining binding at 1 µM (CSNK1D): 100% | remaining binding at 1 µM (MET(M1250T)): 100% | remaining binding at 1 µM (STK35): 92% | remaining binding at 1 µM (TAK1): 70% | remaining binding at 1 µM (MLK2): 100% | remaining binding at 1 µM (TEC): 96% | remaining binding at 1 µM (MST4): 100% | remaining binding at 1 µM [1]: 92% | remaining binding at 1 µM (MYLK4): 100% | remaining binding at 1 µM (TRKC): 70% | remaining binding at 1 µM (EPHB1): 97% | remaining binding at 1 µM (FER): 98%

COc1nc2ccc(NCC3CCN(C)CC3)nn2c1C(=O)Nc1cccc(OC(F)(F)F)c1 [Cpd 1]
EC50 [2]: ~3.56 µM
